Measured values published in PMC10746280, “Bacterial efflux pump modulators prevent bacterial growth in macrophages and under broth conditions that mimic the host environment” (mBio, 2023).

Experiments:
[1] = system: S. Typhimurium SL1344 (sifB::gfp) in RAW 264.7 macrophages; assay: SAFIRE macrophage assay: intracellular bacterial load (GFP signal within macrophages); format: cell-based, Salmonella enterica serotype Typhimurium
Summary of the method: (§1)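 RAW 264.7 macrophages infected with S. Typhimurium SL1344 sifB::gfp (MOI ~30), gentamicin 40 µg/mL, then compound from 2 h to 18 h post-infection. Confocal imaging with MitoTracker and DAPI; toxicity as adherent MitoTracker-positive macrophage count, bacterial load as GFP+ macrophage area.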

RAW 264.7 macrophages = assay: SAFIRE macrophage assay: host toxicity (adherent macrophage count, morphology); format: cell-based
Summary of the method: as §1

[2] = 5 uM, 'Toxic' given instead of a score
[3] = 25 uM, 'Toxic' given instead of a score
[4] = 5 uM compound, n=1, DMSO solvent control = 98, rifampicin 2 μg/mL = 65
[5] = 25 uM compound, n=1, DMSO solvent control = 98, rifampicin 2 μg/mL = 65
[6] = 5 uM compound, n=1, DMSO solvent control = 100
[7] = 25 uM compound, n=1, DMSO solvent control = 100

| Structure (SMILES) | 5 uM Avg Antibacterial Score [1, 2] | 25 uM Avg Antibacterial Score [1, 3] | 5 uM Avg Cell # Score (RAW 264.7 macrophages; 5 uM) | 25 uM Avg Cell # Score (RAW 264.7 macrophages; 25 uM) | 5 uM Avg Antibacterial Score [1, 4] | 25 uM Avg Antibacterial Score [1, 5] | 5 uM Avg Cell # Score (RAW 264.7 macrophages; [6]) | 25 uM Avg Cell # Score (RAW 264.7 macrophages; [7]) | IC50 ([1]; Salmonella enterica, TYPHIMURIUM, RAW264.7, read-out: SAFIRE IC50) [nM] |
| --- | --- | --- | --- | --- | --- | --- | --- | --- | --- |
| OC(COc1ccc(Cl)c(Cl)c1)CN1CC2CCC1CO2 (stereo not drawn) [CU224] | 100 | 69 | 117 | 95 |  |  |  |  |  |
| O=C(CCOc1ccc(Cl)c(Cl)c1)N1CCC(Nc2nccc(C(F)(F)F)n2)C1 (stereo not drawn) [CU111] | 106 | 104 | 86 | 47 |  |  |  |  |  |
| CC(=O)Nc1ccc(OCC(O)CN2CCC(Nc3nccc(C(F)(F)F)n3)CC2)cc1 (stereo not drawn) [CU076] | 102 | 103 | 79 | 86 |  |  |  |  |  |
| OC(CNC1CCNCC1)COc1ccc(Cl)cc1Cl (stereo not drawn) [CU201] | 44 | 13 | 109 | 102 |  |  |  |  |  |
| CO[C@H]1CCN(CC(O)COc2ccc(Cl)c(Cl)c2)C1 (stereo partly drawn) [CU126] | 99 | 47 | 81 | 86 |  |  |  |  |  |
| NCC1CCN(CC(O)COc2ccc(Cl)c(Cl)c2)C1 (stereo not drawn) [CU206] | 25 | 12 | 124 | 87 |  |  |  |  |  |
| OC(CN[C@H]1[C@@H]2CNC[C@@H]21)COc1ccc(Cl)c(Cl)c1 (stereo partly drawn) [CU236] |  |  |  |  | 53 | 18 | 121 | 99 |  |
| CC(=O)NC1CCN(CC(O)COc2ccc(Cl)c(Cl)c2)CC1 (stereo not drawn) [CU063] | 102 | 78 | 107 | 119 |  |  |  |  |  |
| OC(COc1ccc(F)cc1)CN1CCC(Nc2nccc(C(F)(F)F)n2)CC1 (stereo not drawn) [CU037] | 106 | 23 | 74 | 117 |  |  |  |  |  |
| OC1CCN(CC(O)COc2ccc(Cl)c(Cl)c2)CC1 (stereo not drawn) [CU164] | 106 | 82 | 98 | 126 |  |  |  |  |  |
| N#Cc1ccc(OCC(O)CN2CCC(Nc3ncccn3)CC2)cc1 (stereo not drawn) [CU050] | 101 | 95 | 102 | 113 |  |  |  |  |  |
| OC(COc1ccc(Cl)c(Cl)c1)CN1CCC2(CCN2)C1 (stereo not drawn) [CU149] | 73 | 53 | 128 | 108 |  |  |  |  |  |
| COc1ccc(OCC(O)CN2CCC(Nc3nccc(C(F)(F)F)n3)C2)cc1 (stereo not drawn) [CU096] | 103 | 29 | 74 | 92 |  |  |  |  |  |
| OC(COc1ccc(Cl)c(Cl)c1)CN1CCC2(CCO2)C1 (stereo not drawn) [CU228] | 98 | 58 | 111 | 102 |  |  |  |  |  |
| OC(COc1cccc(Br)c1)CN1CCC(Nc2nccc(C(F)(F)F)n2)C1 (stereo not drawn) [CU113] | 68 | Toxic | 92 | 49 |  |  |  |  |  |
| CC1(N)CCN(CC(O)COc2cc(Cl)cc(Cl)c2)CC1 (stereo not drawn) [CU243] |  |  |  |  | 21 | 12 | 129 | 90 |  |
| NC1CCCN(CC(O)COc2ccc(Cl)c(Cl)c2)CC1 (stereo not drawn) [CU230] | 34 | Toxic | 134 | 19 |  |  |  |  |  |
| NCCC1CCN(CC(O)COc2cc(Cl)cc(Cl)c2)C1 (stereo not drawn) [CU252] |  |  |  |  | 98 | 77 | 114 | 117 |  |
| O=C1CCCN1C1CCN(CC(O)COc2ccc(Cl)c(Cl)c2)CC1 (stereo not drawn) [CU060] | 98 | 83 | 100 | 99 |  |  |  |  |  |
| OC(COc1ccc(Cl)c(Cl)c1)CN1CCN(C2COC2)CC1 (stereo not drawn) [CU181] | 109 | 94 | 100 | 101 |  |  |  |  |  |
| Cc1cccc(OCC(O)CN2CCC(Nc3nccc(C(F)(F)F)n3)C2)c1 (stereo not drawn) [CU114] | 96 | 5.57 | 99 | 146 |  |  |  |  |  |
| OC(CNC1CCNCC1)COc1cccc(Cl)c1 (stereo not drawn) [CU199] | 83 | 55 | 105 | 115 |  |  |  |  |  |

| Structure (SMILES) | 5 uM Avg Antibacterial Score [1, 2] | 25 uM Avg Antibacterial Score [1, 3] | 5 uM Avg Cell # Score (RAW 264.7 macrophages; 5 uM) | 25 uM Avg Cell # Score (RAW 264.7 macrophages; 25 uM) | 5 uM Avg Antibacterial Score [1, 4] | 25 uM Avg Antibacterial Score [1, 5] | 5 uM Avg Cell # Score (RAW 264.7 macrophages; [6]) | 25 uM Avg Cell # Score (RAW 264.7 macrophages; [7]) | IC50 ([1]; Salmonella enterica, TYPHIMURIUM, RAW264.7, read-out: SAFIRE IC50) [nM] |
| --- | --- | --- | --- | --- | --- | --- | --- | --- | --- |
| OC(COc1cc(Cl)cc(Cl)c1)CN1CCC(Nc2nccc(C(F)(F)F)n2)C1 (stereo not drawn) [CU088] | 22 | Toxic | 101 | 98 |  |  |  |  |  |
| CC(=O)N(CCNc1nccc(C(F)(F)F)n1)CC(O)COc1ccc(Cl)c(Cl)c1 (stereo not drawn) [CU071] | 85 | Toxic | 62 | 56 |  |  |  |  |  |
| N#Cc1ccc(OCC(O)CN2CCC(Nc3nccc(C(F)(F)F)n3)C2)cc1 (stereo not drawn) [CU094] | 105 | 41 | 91 | 71 |  |  |  |  |  |
| N[C@@H]1CCN(C[C@H](O)COc2ccc(Cl)c(Cl)c2)C1 [CU237] |  |  |  |  | 34 | 11 | 125 | 107 | 8.2 |
| OC(COc1ccc(Cl)c(Cl)c1)CN1CCC(N2CCOCC2)CC1 (stereo not drawn) [CU185] | 87 | 76 | 120 | 125 |  |  |  |  |  |
| Cc1ccc(Sc2cccc3nc(N)nc(N)c23)cc1 [EPM43] | 81 | Toxic | 93 | 67 |  |  |  |  |  |
| OC(COc1ccc(Cl)c(Cl)c1)CN1CCN(CC2CC2)CC1 (stereo not drawn) [CU183] | 92 | 25 | 103 | 105 |  |  |  |  |  |
| NC1CCN(CC(O)COc2ccc(Cl)cc2)C1 (stereo not drawn) [CU165] | 63 | 32 | 105 | 109 |  |  |  |  |  |
| OC(COc1ccc(Cl)c(Cl)c1)CN1CCC(Oc2ncccn2)CC1 (stereo not drawn) [CU158] | 110 | 61 | 106 | 103 |  |  |  |  |  |
| Cc1cccc(OCC(O)CN2CCC(Nc3nccc(C(F)(F)F)n3)CC2)c1 (stereo not drawn) [CU108] | 28 | Toxic | 94 | 27 |  |  |  |  |  |
| NC1CCCN(CC(O)COc2ccc(Cl)c(Cl)c2)C1 (stereo not drawn) [CU144] | 63 | 29 | 99 | 105 |  |  |  |  |  |
| OC(COc1ccccc1F)CN1CCC(Nc2nccc(C(F)(F)F)n2)CC1 (stereo not drawn) [CU105] | 102 | 14 | 79 | 98 |  |  |  |  |  |
| OC(COc1ccc(Cl)c(Cl)c1)CN1CCn2cnnc2C1 (stereo not drawn) [CU156] | 110 | 107 | 97 | 124 |  |  |  |  |  |
| OC(COc1ccc(Cl)c(Cl)c1)CN1CC2CCC(C1)O2 (stereo not drawn) [CU226] | 102 | 108 | 108 | 74 |  |  |  |  |  |
| OC(COc1cccc(C(F)(F)F)c1)CN1CCC(Nc2nccc(C(F)(F)F)n2)C1 (stereo not drawn) [CU092] | 41 | Toxic | 86 | 72 |  |  |  |  |  |
| NC1CCCN(CC(O)COc2cc(Cl)cc(Cl)c2)CC1 (stereo not drawn) [CU231] |  |  |  |  | 22 | Toxic | 112 | 19 |  |
| N#Cc1ccc(OCC(O)CN2CCC(Nc3nccc(C(F)(F)F)n3)CC2)cc1 (stereo not drawn) [CU041] | 106 | 23 | 85 | 78 |  |  |  |  |  |
| CNC1CCN(C[C@@H](O)COc2ccc(Cl)c(Cl)c2)C1 (stereo partly drawn) [CU163] | 65 | 47 | 101 | 111 |  |  |  |  |  |
| OC(COc1ccc(Cl)cc1Cl)CN1CCC(NC2CC2)C1 (stereo not drawn) [CU121] | 73 | 11 | 89 | 89 |  |  |  |  |  |
| OC(COc1ccccc1)CN1CCC(Nc2nccc(C(F)(F)F)n2)CC1 (stereo not drawn) [CU034] | 99 | Toxic | 86 | 57 |  |  |  |  |  |
| COCC1CCCN1CC(O)COc1ccc(Cl)c(Cl)c1 (stereo not drawn) [CU128] | 98 | 32 | 85 | 85 |  |  |  |  |  |
| OC(COc1ccc(Cl)c(Cl)c1)CN1CC2CC1CO2 (stereo not drawn) [CU225] | 98 | 73 | 114 | 101 |  |  |  |  |  |
